The text below walks through data of PMC10530362, “Light-Sensitive Open Channel Block of Ionotropic Glutamate Receptors by Quaternary Ammonium Azobenzene Derivatives” (International Journal of Molecular Sciences, 2023).

Each structure is given as a SMILES string.

Experiment [1] has as its system T1, NMDA receptors (native, hippocampal CA1 pyramidal neurons).
T1 construct: gene Grin1; native heteromeric receptor in isolated rat CA1 pyramidal neurons
As to the kind of experiment: whole-cell patch clamp, NMDA-evoked steady-state current. The following applies: dark (trans), -70 mV, 100 µM NMDA + 10 µM glycine, pH 7.4, 22-24 °C; voltage-dependent foot-in-the-door pore block; unit inferred, µM from context. The class given is cell-based, Rattus norvegicus. A general note: The patch-clamp technique gives a direct electrical read-out from membranes.

Experiment [2] has as its system T2, calcium-permeable AMPA receptors (native, giant cholinergic interneurons of the striatum).
T2 construct: gene Gria1; native GluA2(R)-lacking receptors in isolated rat striatal giant interneurons
As to the kind of experiment: whole-cell patch clamp, kainate-evoked current. The following applies: dark (trans), -70 mV, 100 µM kainate, pH 7.4, 22-24 °C; open channel pore block plus minor voltage-independent site; unit inferred, µM from context. The class given is cell-based, Rattus norvegicus.

With `CC[N+](CC)(CC)CC(=O)Nc1ccc(N=Nc2ccc(NC(=O)C[N+](CC)(CC)CC)cc2)cc1` [QAQ], the half-maximal inhibitory concentration (IC50) (in general, the concentration needed to halve the response being measured) in experiment [1] was found to be 18.6 ± 1 µM; in experiment [2], 17 ± 2 µM.

Regarding `C=CC(=O)Nc1ccc(/N=N/c2ccc(NC(=O)C[N+](CC)(CC)CC)cc2)cc1` [AAQ], the half-inhibitory concentration (IC50) in experiment [1] worked out at 19 ± 1.4 µM; in experiment [2], 28.5 ± 1.1 µM.
